Results as given in US7816074B2, “α4 β2 δGABA-A receptors as a strategy for PMS and alcoholism” (priority 2003, dated 2010).

Legend:
GABAR α4 subunit = test: Western blot of α4 subunit in hippocampus after steroid and ethanol administration; type: in vivo, rat; conditions: 48 hours of exposure to 3α,5β-THP (10 mg/kg i.p.), saline
Method: (§1) Animals were administered steroids using one of two protocols: (i) For the 48 hour steroid administration protocol, animals were injected with 10 mg/kg 3α, 5β THP in oil, i.p., on a daily basis for three days and sacrificed 1-2 hour following the final injection. Controls were injected with oil vehicle. […] At this time, the capsule was removed and the animals were injected with 17 β estradiol (2 μgs/animal) in order to reset their cycle. Animals were sacrificed 24 hours later. […] In all cases, implantation and removal of capsules were performed under halothane anesthesia. […] Therefore, this study employed the 5β isomer of the steroid.
(§2) In some groups of animals, either ethanol (0.5 g/kg in saline) or saline vehicle was administered i.p. (3×, every 40 minutes) for the final 2 hours of the respective steroid administration or withdrawal paradigm. The use of multiple injections of low doses of ethanol would approximate ethanol consumption in the human more closely than would a single injection. For the 48 hour steroid administration paradigm, animals received their first ethanol injection immediately after the steroid injection, and subsequent injections at 40 minute intervals. In all cases, animals were sacrificed 40 minutes after the final ethanol injection (2 hours after the first ethanol injection and final steroid injection). All animal protocols were carried out with the approval of the Institutional Animal Care and Use Committee.
Hippocampi removed from steroid or vehicle-treated animals were homogenized, and membranes prepared as previously described (65). Following electrophoresis on 8% SDS polyacrylamide gels, membranes were transferred to a nitrocellulose membrane (Bio-Rad, Hercules, Calif.). α4 subunit levels were detected by evaluating the band density at 67 kDa after probing with a polyclonal antibody (64). Membranes were incubated for 1-2 hours at room temperature with a 1:5000 dilution of horseradish peroxidase-conjugated donkey anti-rabbit IgG (Amersham, Arlington Heights, Ill.), and visualized with enhanced chemiluminescence with varying concentrations of protein in the linear range. Immunoreactive band densities were quantified using a CCD camera (UMAX Scanner) and one-Dscan software, which uses multiple Gaussian fits to achieve accurate band density profiles.

[1] = test system: GABAR of acutely dissociated CA1 hippocampal pyramidal neurons; test: Whole cell patch clamp, lorazepam modulation and decay of GABA-gated current after steroid/ethanol treatment; type: cell-based, rat
Method: as §1, §2
Currents were recorded using an Axopatch 1D amplifier (Axon Instruments) filtered at 2 kHz (four-pole Bessel filter) and detected at 500 Hz (pClamp 5.1).

α4β2δ GABAA receptors [2] = target: T1, α4β2δ GABAA receptors (UniProt O14764+P63138+Q9D6F4); test: Two-electrode voltage-clamp of recombinant GABAA receptors in oocytes; type: cell-based
T1 construct: expressed in transfected cells
T1 sequence (Q9D6F4 36-552): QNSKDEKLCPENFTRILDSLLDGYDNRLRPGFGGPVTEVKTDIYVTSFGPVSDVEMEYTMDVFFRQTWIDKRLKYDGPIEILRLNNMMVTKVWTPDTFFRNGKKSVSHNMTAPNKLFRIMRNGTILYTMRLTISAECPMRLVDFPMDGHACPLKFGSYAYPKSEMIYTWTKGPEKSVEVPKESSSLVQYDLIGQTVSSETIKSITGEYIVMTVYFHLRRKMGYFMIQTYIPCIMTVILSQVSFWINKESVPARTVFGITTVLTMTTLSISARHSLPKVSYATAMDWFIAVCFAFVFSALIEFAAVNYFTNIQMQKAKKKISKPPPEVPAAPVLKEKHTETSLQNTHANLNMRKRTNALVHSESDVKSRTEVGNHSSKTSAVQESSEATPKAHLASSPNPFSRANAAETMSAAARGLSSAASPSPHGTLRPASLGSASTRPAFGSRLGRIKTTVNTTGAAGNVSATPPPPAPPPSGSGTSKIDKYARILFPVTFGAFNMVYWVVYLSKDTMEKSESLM
T1 sequence (P63138 25-474 limits assumed): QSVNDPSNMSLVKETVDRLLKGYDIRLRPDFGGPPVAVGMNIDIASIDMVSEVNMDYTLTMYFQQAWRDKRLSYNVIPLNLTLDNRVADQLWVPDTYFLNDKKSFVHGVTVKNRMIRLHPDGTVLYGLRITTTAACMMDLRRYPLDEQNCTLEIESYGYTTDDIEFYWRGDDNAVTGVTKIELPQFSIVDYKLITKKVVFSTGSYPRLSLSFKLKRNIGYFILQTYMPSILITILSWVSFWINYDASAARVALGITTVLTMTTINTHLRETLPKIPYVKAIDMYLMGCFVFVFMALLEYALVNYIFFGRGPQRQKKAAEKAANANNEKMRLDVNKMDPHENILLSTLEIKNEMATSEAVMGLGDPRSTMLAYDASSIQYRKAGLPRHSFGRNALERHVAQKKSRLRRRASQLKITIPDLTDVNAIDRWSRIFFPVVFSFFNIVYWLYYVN
T1 sequence (O14764 17-452 limits assumed): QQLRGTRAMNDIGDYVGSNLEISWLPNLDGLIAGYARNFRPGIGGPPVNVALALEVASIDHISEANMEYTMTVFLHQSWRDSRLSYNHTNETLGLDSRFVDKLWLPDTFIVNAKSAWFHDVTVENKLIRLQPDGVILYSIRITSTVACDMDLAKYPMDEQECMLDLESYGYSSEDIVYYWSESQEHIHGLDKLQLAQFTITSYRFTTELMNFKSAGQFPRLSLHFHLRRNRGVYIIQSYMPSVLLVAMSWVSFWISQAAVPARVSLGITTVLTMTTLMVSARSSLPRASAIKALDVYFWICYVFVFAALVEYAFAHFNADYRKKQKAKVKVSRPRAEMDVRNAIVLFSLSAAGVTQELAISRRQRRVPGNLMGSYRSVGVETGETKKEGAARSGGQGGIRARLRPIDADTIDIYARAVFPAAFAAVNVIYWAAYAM

[3] = test system: GABAA receptors of acutely isolated CA1 hippocampal pyramidal cells; test: Whole cell patch clamp, ethanol or THIP effect on GABA-gated current; type: cell-based, rat; conditions: after progesterone withdrawal
Method: Pyramidal neurons were acutely dissociated from CA1 hippocampus and GABA-gated Cl^− currents analyzed using whole cell patch clamp procedures as previously described (67). Briefly, tissue was digested at 32° C. for 50-60 minutes under 100% O2 in PIPES-buffered saline containing (in mM): NaCl 120, KCl 5, CaCl2 1, MgCl2 1, D-glucose 25, PIPES 20 and trypsin (type XI, sigma) 0.8 mg/ml, pH 7.0. After 1 hour of enzyme-free incubation at room temperature, tissue was dissociated by trituration in 1 ml of 20 mM HEPES-buffered DMEM which was replaced by recording medium after transfer to the recording chamber. GABA-gated currents were recorded at room temperature (20-25° C.) at a holding potential of −50 mV in a bath containing (in mM): NaCl 120, CsCl 5, CaCl2 2, MgCl2 1, TEA Cl 15, 4-aminopyridine 5, HEPES 10 and glucose 25, pH 7.4, 320 mOsm/kg H2O. The pipette solution contained (in mM): N-methyl-D-glucamine chloride 120, Cs4BAPTA 5 and Mg-ATP 5. The ATP regeneration system Tris phosphocreatine (20 mM) and creatine kinase were added to minimize GABA rundown. All drugs were obtained from Sigma Chemical Co, (St. Louis, Mo.), except for BAPTA (Calbiochem, San, Diego, Calif.).
Peak currents were calculated for all drug concentrations as relative to the current gated by 10 μM GABA alone using the equation: ([peak current: GABA+ETOH]−[peak current: GABA alone])/[peak current: GABA alone]. Currents were recorded using an Axopatch 1D amplifier (Axon Instruments) filtered at 2 kHz (four-pole Bessel filter) and detected at 500 Hz (pClamp 5.1).
Following progesterone withdrawal or control conditions, pyramidal cells were acutely isolated from CA1 hippocampus as described (65,64). GABA-gated Cl^− currents were recorded using whole cell patch clamp techniques at a holding potential of −50 mV.

female Long Evans rats = test: Acoustic startle response (ASR); type: in vivo, rat; conditions: THIP 3 mg/kg i.p.
Method: Animals were tested in a stabilimeter device (SR-Lab Startle Response System, San Diego Instruments, Inc., San Diego, Calif.) that permits vertical movement of a Plexiglas platform contained within a lit, well-ventilated sound-attenuating chamber (26). The amplitude of movement is detected by a piezoelectric device with a voltage output proportional to platform displacement. The analog output of the accelerometer is then amplified and digitized before computer analysis. Five minutes after i.p. administration of 10% ethanol (0.05-1.6 g/kg) or saline vehicle (1.5 ml volume) or 25 minutes after 4,5,6,7-tetrahydroisoxazolo[5,4-c]pyridin-3-ol injection (3 mg/kg, i.p.), animals were placed in the chamber for a 5 minutes acclimation period. […] Four acoustic stimuli (116 dB, 40 ms duration) were then presented at random intervals once every 10-15 seconds via a white-noise generator through speakers positioned on either side of the cage. […] For each acoustic stimulus, the amplitude and integrated response (amplitude and duration) were determined and normalized to the weight of the animal. Values for the integrated response after administration of each dose of ethanol or 4,5,6,7-tetrahydroisoxazolo[5,4-c]pyridin-3-ol were averaged and expressed as a fraction of the saline control average for the indicated treatment (progesterone withdrawal versus control) group in order to minimize variability between groups. […] It is also routinely used to assess behavioral excitability after withdrawal from BDZs and ethanol (73).
Animals were tested in a stabilimeter device (SR-Lab Startle Response System, San Diego Instruments, Inc.) that permitted vertical movement of a Plexiglas cage contained within a lit, well-ventilated, sound-attenuating chamber. The amplitude of movement was detected by a piezoelectric device with a voltage output proportional to cage displacement. The analog output of the accelerometer was amplified and digitized before computer analysis (15). Five minutes following intraperitoneal administration of alcohol (0.2 or 0.4 g/kg) or saline vehicle (1.5 ml volume), animals were placed in the chamber for 5 a minute acclimation period. Five acoustic stimuli (116 dB, 40 msec duration) were then presented once every 10-15 seconds via a white-noise generator through speakers positioned on either side of the cage. For each acoustic stimulus, the integrated response (amplitude and duration) was averaged across a 100 msec post-stimulus time period and the response latency determined. Both values were normalized to the weight of the animal. Values for the integrated response for the first noise stimulus following administration of each dose of alcohol were averaged and expressed as a fraction of the saline control average for the indicated treatment (P Wd versus control) group. […] It is routinely used to assess behavioral excitability following withdrawal from benzodiazepiness (48) and alcohol (73), and is known to be modified by GABA modulators, such as diazepam (11), and by local infusion of excitatory compounds into dorsal hippocampus (85).

α4β2δ GABAA receptors [4] = target: T1, α4β2δ GABAA receptors; conditions: α4βδ receptors (ref. 6); cited from earlier work
[5] = target: T2, α1β2δ receptors (oocytes injected with α1+β2+δ) (Rattus norvegicus, UniProt P62813+P63138); type: cell-based, human δ, expressed in Xenopus laevis oocytes; conditions: 1 μM zinc; the other 15 oocytes injected with α1+β2+δ
T2 construct: expressed in transfected cells; host or cells: oocytes injected with cRNA (Xenopus laevis is named only)
T2 sequence (P62813 28-455): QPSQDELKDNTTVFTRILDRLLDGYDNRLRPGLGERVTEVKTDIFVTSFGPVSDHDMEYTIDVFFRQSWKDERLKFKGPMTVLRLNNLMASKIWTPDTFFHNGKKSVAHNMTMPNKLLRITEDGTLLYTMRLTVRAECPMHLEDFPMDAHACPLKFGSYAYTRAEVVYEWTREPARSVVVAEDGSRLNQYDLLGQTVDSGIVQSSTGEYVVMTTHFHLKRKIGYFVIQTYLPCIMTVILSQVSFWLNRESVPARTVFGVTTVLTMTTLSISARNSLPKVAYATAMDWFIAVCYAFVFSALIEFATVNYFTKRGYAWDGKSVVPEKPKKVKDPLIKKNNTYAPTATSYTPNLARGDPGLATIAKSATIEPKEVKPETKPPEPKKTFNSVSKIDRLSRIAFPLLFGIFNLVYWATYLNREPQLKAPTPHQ
T2 sequence (P63138 26-474): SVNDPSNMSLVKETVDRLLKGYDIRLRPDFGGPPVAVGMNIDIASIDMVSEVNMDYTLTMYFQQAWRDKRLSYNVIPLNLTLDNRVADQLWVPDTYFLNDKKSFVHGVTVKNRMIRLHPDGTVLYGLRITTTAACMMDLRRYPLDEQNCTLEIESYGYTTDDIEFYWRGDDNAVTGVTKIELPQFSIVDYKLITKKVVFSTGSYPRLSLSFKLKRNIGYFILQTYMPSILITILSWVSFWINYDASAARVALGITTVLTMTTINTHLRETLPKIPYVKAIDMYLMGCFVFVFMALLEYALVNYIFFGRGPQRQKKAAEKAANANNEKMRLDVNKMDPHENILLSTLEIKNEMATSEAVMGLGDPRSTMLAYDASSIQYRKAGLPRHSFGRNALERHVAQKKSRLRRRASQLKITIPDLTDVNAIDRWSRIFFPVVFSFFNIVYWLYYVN
Description: (§3) Plasmids with inserts encoding GABAA receptor subunit sequence for rat α1 (62), rat β2 (83), rat α2 (62), rat α5 (62), mouse α4 (37), mouse β3 (82), rat β1 (83), rat γ2S (63), human δ (12), and human ε (11) were produced by subcloning each separately into an appropriate cloning vehicle such as PCDM8, pCDNA3.1 or pGHEMHE vectors (Invitrogen, Carlsbad Calif.) using a T7 promoter and standard subcloning techniques (59). Plasmids were linearized with an appropriate restriction enzyme at a site 3′ to the insert and cRNAs were synthesized using T3 or T7 polymerase (mMessage mMachine, Ambion, Tex.). The size of the cRNA was verified and RNA was quantified by ethidium bromide staining after electrophoresis on 1% agarose gels.
(§4) The preparation, injection, and maintenance of oocytes were carried out as described previously (78). Oocytes were injected with receptor subunit cRNAs (2 to 20 ng) in the following ratios: α1:β1:γ2S, α1:β2:γ2S and α1:β1:ε1, 1:1:1; α2:β1:γ2S, α5:β1:γ2S, α4:β1:γ2S, and α4:β2:γ2S, 10:1:1; α4:β1:δ, α4:β2:δ, α4:β3δ, 10:1:10; α1:β2:δ, 1:1:10 or 1:0.5:3; α1:β1:δ, 1:1:10 or 1:0.5:3; α2:β1:δ and α2:β2:δ, 1:0.5:3; α1:β1, α1:β2, α2:β1, α2:β2, β2:γ2S and α4δ, 1:1, α4:β1, α4:β2, α4:β3, 10:1, β2δ, 1:10.
(§5) Voltage-clamp recording was carried out 1 to 3 days after injection of cRNAs. Electrodes were filled with 3 M KCl and had resistances of 0.4-4 MΩ. Oocytes were positioned in a small Perspex chamber and continuously superfused with a saline solution (100 mM NaCl, 2 mM KCl, 1.8 mM CaCl2, 10 mM HEPES, pH 7.5). Agonists and modulators were both applied in the same saline solution. Oocytes were voltage-clamped at −70 mV and macroscopic currents were recorded with a two-electrode voltage-clamp using a Warner Instruments OC-725 amplifier as described previously (79). Currents were recorded on a chart recorder or by using Axograph on a Macintosh computer.
(§6) Other subunits (α1, α2, β1, β2) were tested for co-expression with the δ subunit. […]

[6] = target: T3, α1β2δ receptors (oocytes injected with α1+β2+δ) (UniProt O14764+P62813+P63138); type: cell-based, rat α1, rat β2, human δ, expressed in Xenopus laevis oocytes; conditions: 1 μM zinc; 7 of 22 oocytes injected with α1+β2+δ
T3 construct: expressed in transfected cells; host or cells: oocytes injected with cRNA (Xenopus laevis is named only)
T3 sequence (P62813 28-455): as the sequence (P62813 28-455) above
T3 sequence (P63138 26-474): as the sequence (P63138 26-474) above
T3 sequence (O14764 25-452): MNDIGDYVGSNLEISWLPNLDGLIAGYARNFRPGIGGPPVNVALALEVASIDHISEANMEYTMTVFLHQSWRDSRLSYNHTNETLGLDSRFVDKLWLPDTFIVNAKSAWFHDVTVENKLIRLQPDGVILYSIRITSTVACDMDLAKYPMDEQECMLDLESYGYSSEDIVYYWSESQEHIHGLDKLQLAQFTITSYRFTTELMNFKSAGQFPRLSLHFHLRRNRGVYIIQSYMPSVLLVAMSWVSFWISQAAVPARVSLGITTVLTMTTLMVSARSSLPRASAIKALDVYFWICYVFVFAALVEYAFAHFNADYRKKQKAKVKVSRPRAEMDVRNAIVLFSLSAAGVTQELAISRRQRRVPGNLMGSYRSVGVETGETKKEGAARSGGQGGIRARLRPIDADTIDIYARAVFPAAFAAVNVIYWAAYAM
Description: as §3, §4, §5, §6

α1β2 receptors = target: T4, α1β2 receptors (Rattus norvegicus, UniProt P62813+P63138); test: Two-electrode voltage-clamp of recombinant GABAA receptors in oocytes; type: cell-based, expressed in Xenopus laevis oocytes; conditions: 1 μM zinc; n=5
T4 construct: expressed in transfected cells; host or cells: oocytes injected with cRNA (Xenopus laevis is named only)
T4 sequence (P62813 28-455): as the sequence (P62813 28-455) above
T4 sequence (P63138 25-474 limits assumed): as the sequence (P63138 25-474 limits assumed) above
Description: as §3
The preparation, injection, and maintenance of oocytes were carried out as described previously (78). […]
Voltage-clamp recording was carried out 1 to 3 days after injection of cRNAs. […] Oocytes were voltage-clamped at −70 mV and macroscopic currents were recorded with a two-electrode voltage-clamp using a Warner Instruments OC-725 amplifier as described previously (79). Currents were recorded on a chart recorder or by using Axograph on a Macintosh computer. […]

Compound: CC(=O)[C@H]1CC[C@H]2[C@@H]3CC[C@@H]4C[C@H](O)CC[C@]4(C)[C@H]3CC[C@]12C [3α, 5β-THP]
- increase of α4 expression compared to control (GABAR α4 subunit): threefold

Compound: O=C1Nc2ccc(Cl)cc2C(c2ccccc2Cl)=NC1O (stereo not shown) [LZM, lorazepam]
- maximal potentiation of GABA-gated current ([1]; 10 μM LZM, 48 h 3α,5β-THP with 2 h ethanol): 90%
- potentiation of GABA-gated current ([1]; 10 μM LZM, 48 h 3α,5β-THP, saline-treated rats): 12-15%
- LZM-induced potentiation of GABA-gated current ([1]; 2 hours of ethanol after progesterone withdrawal): robust

Compound: Oc1noc2c1CCNC2 [THIP, 4,5,6,7-tetrahydroisoxazolo[5,4-c]pyridin-3-ol]
- ratio of currents induced by THIP:GABA (α4β2δ GABAA receptors [2]; oocytes injected with α4+β2+δ subunits): 1.24
- efficacy of THIP relative to GABA (maximum current) [3]: increased efficacy
- attenuation of ASR (female Long Evans rats; P withdrawn animals): 70%
- increase of ASR (female Long Evans rats; control animals): about 40%
- maximum current compared to that gated by GABA at α4βδ (α4β2δ GABAA receptors [4]): greater maximum current

Compound: [La] [lanthanum]
- inhibition of currents at α4β2δ receptors (α4β2δ GABAA receptors [2]; La3+ 300 μM): 80%

Compound: [Zn] [zinc]
- zinc inhibition of GABA currents [5]: 66.4±6.4%
- zinc inhibition of GABA currents [6]: 49.1±6.4%
- zinc inhibition of GABA currents (α1β2 receptors): 72.4±6.9%
